Measurements: US4130644A, “7-Acylamine-3-(sulfoalkyl substituted oxadiazolylthiomethyl) cephalosporins and pharmaceutical compositions containing them” (SmithKline Corporation, priority 1977, dated 1978)
≈ marks a conversion by molar mass, not a printed value.

What was measured:
E. coli HH 33779 = assay: in vitro minimum inhibitory concentration (MIC); format: cell-based; conditions: Escherichia coli, HH33779; E. coli HH 33779, in vitro
Description: (§1) The compounds of Formula I have exceptional antibacterial activity against both Gram-positive and Gram-negative organisms. Minimum inhibitory concentrations (MIC's) range from 0.2 to <200 μg./ml. in in vitro testing. Test results for the compound 7-D-mandelamido-3-(5-sulfomethyl-1,3,4-oxadiazol-2-ylthiomethyl)-3-cephem- 4-carboxylic acid are given below: […]

E. coli SK 12140 = assay: in vitro minimum inhibitory concentration (MIC); format: cell-based; conditions: Escherichia coli, SK12140; E. coli SK 12140, in vitro
Description: as §1

Entero aerog. ATCC 13048 = assay: in vitro minimum inhibitory concentration (MIC); format: cell-based; conditions: Entero aerog. ATCC 13048, in vitro
Description: as §1

Entero. cloacae HH 31254 = assay: in vitro minimum inhibitory concentration (MIC); format: cell-based; conditions: Enterobacter cloacae, HH31254; Entero. cloacae HH 31254, in vitro
Description: as §1

Kleb. pneumo. SK 1200 = assay: in vitro minimum inhibitory concentration (MIC); format: cell-based; conditions: Kleb. pneumo. SK 1200, in vitro
Description: as §1

Kleb. pneumo. SK 4200 = assay: in vitro minimum inhibitory concentration (MIC); format: cell-based; conditions: Kleb. pneumo. SK 4200, in vitro
Description: as §1

Proteus morgani 179 = assay: in vitro minimum inhibitory concentration (MIC); format: cell-based; conditions: Proteus morgani 179, in vitro
Description: as §1

Pseudo. aerug. HH 63 = assay: in vitro minimum inhibitory concentration (MIC); format: cell-based; conditions: Pseudo. aerug. HH 63, in vitro
Description: as §1

S. aureus HH 127 = assay: in vitro minimum inhibitory concentration (MIC); format: cell-based; conditions: Staphylococcus aureus, HH127; S. aureus HH 127, in vitro
Description: as §1

S. aureus SK 23390 = assay: in vitro minimum inhibitory concentration (MIC); format: cell-based; conditions: Staphylococcus aureus, SK23390; S. aureus SK 23390, in vitro
Description: as §1

S. villaluz SK 70390 = assay: in vitro minimum inhibitory concentration (MIC); format: cell-based; conditions: S. villaluz SK 70390, in vitro
Description: as §1

Salmonella ATCC 12176 = assay: in vitro minimum inhibitory concentration (MIC); format: cell-based; conditions: ATCC12176; Salmonella ATCC 12176, in vitro
Description: as §1

Serrata marc. ATCC 13880 = assay: in vitro minimum inhibitory concentration (MIC); format: cell-based; conditions: Serrata marc. ATCC 13880, in vitro
Description: as §1

Shigella HH 117 = assay: in vitro minimum inhibitory concentration (MIC); format: cell-based; conditions: HH117; Shigella HH 117, in vitro
Description: as §1

Strep. faecalis HH 34358 = assay: in vitro minimum inhibitory concentration (MIC); format: cell-based; conditions: Enterococcus faecalis, HH34358; Strep. faecalis HH 34358, in vitro
Description: as §1

E. coli 12140 = assay: in vivo mouse protection test; conditions: Escherichia coli, sc, E. coli 12140, subcutaneous injection
From the text: (§2) 4200 upon subcutaneous injection.

Kleb. pneumo. 4200 = assay: in vivo mouse protection test; conditions: sc, Kleb. pneumo. 4200, subcutaneous injection
From the text: as §2

Question: How did the MIC (E. coli HH 33779) turn out when `O=C(O)C1=C(CSc2nnc(CS(=O)(=O)O)o2)CS[C@@H]2[C@H](NC(=O)[C@H](O)c3ccccc3)C(=O)N12` [7-D-Mandelamido-3-(5-sulfomethyl-1,3,4-oxadiazol-2-ylthiomethyl)-3-cephem-4-carboxylic acid] was run?
Answer: The MIC was 3.1 µg/mL (≈ 5.71 µM).

Question: And the MIC (E. coli SK 12140)?
Answer: The MIC was 1.6 µg/mL (≈ 2.95 µM).

Question: What about the MIC (Entero aerog. ATCC 13048) of the same compound?
Answer: Its MIC is 3.1 µg/mL (≈ 5.71 µM).

Question: And the MIC (Entero. cloacae HH 31254)?
Answer: Its MIC is 1.6 µg/mL (≈ 2.95 µM).

Question: What about the MIC (Kleb. pneumo. SK 1200) of the same compound?
Answer: The MIC was 0.8 µg/mL (≈ 1.47 µM).

Question: What about the MIC (Kleb. pneumo. SK 4200) of the same compound?
Answer: The MIC was 1.6 µg/mL (≈ 2.95 µM).

Question: What about the MIC (Proteus morgani 179) of the same compound?
Answer: The MIC was 25 µg/mL (≈ 46.1 µM).

Question: And the MIC (Pseudo. aerug. HH 63)?
Answer: Its MIC is greater than 200 µg/mL.

Question: And the MIC (S. aureus HH 127)?
Answer: Its MIC is 3.1 µg/mL (≈ 5.71 µM).

Question: And the MIC (S. aureus SK 23390)?
Answer: Its MIC is 1.6 µg/mL (≈ 2.95 µM).

Question: And the MIC (S. villaluz SK 70390)?
Answer: The MIC was 200 µg/mL (≈ 369 µM).

Question: And the MIC (Salmonella ATCC 12176)?
Answer: Its MIC is 1.6 µg/mL (≈ 2.95 µM).

Question: What about the MIC (Serrata marc. ATCC 13880) of the same compound?
Answer: The MIC was 100 µg/mL (≈ 184 µM).

Question: And the MIC (Shigella HH 117)?
Answer: The MIC was 0.8 µg/mL (≈ 1.47 µM).

Question: What about the MIC (Strep. faecalis HH 34358) of the same compound?
Answer: Its MIC is 50 µg/mL (≈ 92.2 µM).

Question: And the ED50 (E. coli 12140)?
Answer: The ED50 was 1.56 mg/kg.

Question: And the ED50 (Kleb. pneumo. 4200)?
Answer: The ED50 was 1.56 mg/kg.
